# Values quoted from earlier work in US12116608B2, “Extended metabolism methods for increasing and extracting metabolites from algae and microorganisms” (Synergraze Inc., priority 2022, dated 2024).
# Conditions: general description
compound,measurement,value
BrC(Br)Br [bromoform],solubility in water,soluble in water
